Reference: patent US20240132479A1, “THERAPEUTIC COMPOUNDS AND USES THEREOF” (Board of Trustees of Michigan State University, priority 2021, published 2024)
Converted amounts (≈) assume the structure as drawn. Read-outs that look alike come from different tables or passages of the source.

Legend:
Mtb H37Rv = test: MIC determination in microdilution assay, Mtb H37Rv; format: cell-based; settings: Mycobacterium tuberculosis
[1] = test system: M. abscessus (ATCC 19977); test: MIC determination in microdilution assay, M. abscessus; format: cell-based, Mycobacterium abscessus; settings: Mycobacteroides abscessus, ATCC19977; read-out: MIC M. abcessus 19977
[2] = test system: M. avium (ATCC 700891 MAC 101); test: MIC determination in microdilution assay, M. avium; format: cell-based; settings: Mycobacterium avium, ATCC700891
[3] = test system: Mycobacterium avium complex (ATCC 700891 MAC 101); test: Ex vivo efficacy, M. avium; format: cell-based
Method: (§1) The compounds of Examples 2, 21A, and 19 were tested for 1) for ex vivo efficacy and 2) cytotoxicity. Ex vivo efficacy was determined by inhibition of Mycobacterium tuberculosis (Mtb) H37Rv, Mycobacterium avium complex (ATCC 700891 MAC 101), and Mycobacterium abscessus (ATCC 19977). Cytotoxicity tests were carried out against three human cell lines, THP-1 (ATCC TIB-202), HepG2 (ATCC HB-8065), and HeLa (ATCC CCL-2), IC50 values were calculated from dose response curves to determine cytotoxicity of test compounds. […] Of the three compounds tested for ex vivo efficacy against NTM strains, there was no activity (>32 mg/L) against M. avium and one compound with activity against M. abscessus. […] These compounds were not cytotoxic (>128 mg/L) against HepG2 and HeLa cells. The compounds average therapeutic index for HepG2 was 12.4-48.3 and 96.7-389 for HeLa.

[4] = test system: Mycobacterium abscessus (ATCC 19977); test: Ex vivo efficacy, M. abscessus; format: cell-based
Method: as §1

in vitro = format: cell-based; settings: human
Method: as §1

[5] = HeLa cells, read-out: HeLa Cytotoxicity (IC50 μg/ml)
[6] = HepG2 cells, read-out: HepG2 Cytotoxicity (IC50 μg/ml)
[7] = THP-1 cells, read-out: THP-1 Cytotoxicity (IC50 μg/ml)

Cc1cc2nc(SCC(=O)N(C(C)C)C(C)C)[nH]c2cc1C [Example 2, 2-[(5,6-dimethyl-1H-1,3-benzodiazol-2-yl)sulfanyl]-N,N-bis(propan-2-yl)acetamide]
MIC (Mtb H37Rv): 0.5 µg/mL (≈ 1.57 µM) | MIC [1]: 4 µg/mL (≈ 12.5 µM) | MIC [2]: > 64 µg/mL | M. avium ex vivo efficacy (>90% inhibition μg/ml) [3]: 0.5 µg/mL | M. abscessus ex vivo efficacy (>90% inhibition μg/ml) [4]: 0.25 µg/mL | IC50 (in vitro; [5]): 4 µg/mL (≈ 12.5 µM) | IC50 (in vitro; [6]): 0.5 µg/mL (≈ 1.57 µM) | IC50 (in vitro; [7]): 0.5 µg/mL (≈ 1.57 µM) | melting point: 172 °C

CC(C)N(C(=O)CCc1nc2cc(Cl)c(Cl)cc2[nH]1)C(C)C [Example 19]
MIC (Mtb H37Rv): ≤ 0.125 µg/mL | MIC [1]: 1 µg/mL (≈ 2.92 µM) | MIC [2]: 8 µg/mL (≈ 23.4 µM) | M. avium ex vivo efficacy (>90% inhibition μg/ml) [3]: ≤0.125 µg/mL | M. abscessus ex vivo efficacy (>90% inhibition μg/ml) [4]: ≤0.125 µg/mL | IC50 (in vitro; [5]): 1 µg/mL (≈ 2.92 µM) | IC50 (in vitro; [6]): ≤ 0.125 µg/mL | IC50 (in vitro; [7]): ≤ 0.125 µg/mL

Cc1cc2nc(CCC(=O)N(C(C)C)C(C)C)[nH]c2cc1C [Example 21A]
MIC (Mtb H37Rv): 0.25 µg/mL (≈ 0.829 µM) | MIC [1]: 2 µg/mL (≈ 6.63 µM) | MIC [2]: 16 µg/mL (≈ 53.1 µM) | M. avium ex vivo efficacy (>90% inhibition μg/ml) [3]: 0.25 µg/mL | M. abscessus ex vivo efficacy (>90% inhibition μg/ml) [4]: 0.25 µg/mL | IC50 (in vitro; [5]): 2 µg/mL (≈ 6.63 µM) | IC50 (in vitro; [6]): ≤ 0.125 µg/mL | IC50 (in vitro; [7]): ≤ 0.125 µg/mL
